Patent publication US20240150306A1, “COMPOUNDS WITH CLEAVABLE DISULFIDE MOIETIES” (REINVIGORON THERATECH, INC., priority 2022, published 2024)

Tests used:
[1] = test system: 4T1 murine breast cancer cells; assay: Cell viability / cytotoxicity detection (ONE-Glo+Tox); format: cell-based
Method: (§1) 4T1 murine breast cancer cells were seeded into white 96-well plate with the density of 1×10^4 cells per well. After 24 h, cells were replaced by 180 μL fresh RPMI 1640 medium (10% FBS), and 20 μL mRNA-Luc or Luc-pDNA encapsulated CLLM Nanoparticle formulations were added with fixed 100 ng mRNA or 200 ng pDNA per well. Free mRNA-Luc or Luc-pDNA were used as the control. Cells were further incubated for 24 h and ONE-Glo+Tox kits were used for mRNA expression and cytotoxicity detection based on the standard protocol.

[2] = test system: 4T1 murine breast cancer cells; assay: In vitro luciferase expression (ONE-Glo+Tox); format: cell-based; details: 100 ng mRNA or 200 ng pDNA per well, 24 h, FIGS. 11 and 12
Method: as §1

CCCCCCCCCCCCCCOC(=O)CCN(CCSSCCN(C)C)CCC(=O)OCCCCCCCCCCCCCC [CLLM-2]
tolerability of drug delivery (mRNA nanoparticle formulations) ([1]; 100 ng mRNA in 200 uL medium per well, FIG. 11): tolerated
tolerability of drug delivery (pDNA nanoparticle formulations) ([1]; 200 ng pDNA in 200 uL medium per well, FIG. 12): tolerated
luciferase expression / delivery of mRNA and pDNA into cells [2]: can deliver mRNA and pDNA into cells
